Data published in article PMC12013189, “Phospho-regulated tethering of focal adhesion kinase to vinculin links force transduction to focal adhesion signaling” (Cell Communication and Signaling : CCS, 2025).

Experiments:
[1] = molecular target: T1, FAT domain of FAK (hFAK904-1052 WT) (Homo sapiens, UniProt Q05397); test: Fluorescence anisotropy binding of FITC LD peptides to FAT-WT; details: versus single LD motifs
T1 construct: Expression plasmids for FAT (hFAK904-1052 WT and mutants H14, H23 and H14-23); 6xHis (TEV cleavable) (N, cleaved yes); made in house; host or cells: E. coli BL21(DE3)
T1 sequence (Q05397 904-1052): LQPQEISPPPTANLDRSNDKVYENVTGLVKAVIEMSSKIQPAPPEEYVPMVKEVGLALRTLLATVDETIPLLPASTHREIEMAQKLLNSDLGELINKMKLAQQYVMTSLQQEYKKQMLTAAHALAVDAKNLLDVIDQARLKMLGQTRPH
Source text: Expression plasmids for FAT (hFAK904-1052 WT and mutants H14, H23 and H14-23), Vin-FL (hVinculin1-1066) and Vin-T (hVinculin891-1066) were ordered from GenScript in the pET28(+) vector, adding a TEV cleavable N-terminal 6xHis tag to the expressed proteins. Mutant FAT-H14 contains the mutations I936A, H1025A, K1032A; FAT-H23 contains the mutations K955A, R962A, I998A and FAT-14-23 contains the combined mutations I936A, K955A, R962A, I998A, H1025A, K1032A. All plasmids were introduced into E.coli strain BL21(DE3) for expression. Cells were grown in LB media, induced with 1 mM IPTG at an OD (600 nm) of 0.6 and grown over night at 20 °C. Cells were pelleted at 6000 rpm and resuspended in 20 mM Tris pH8, 200 mM NaCl, 5% Glycerol, 10 mM imidazole, 2mM TCEP, 1mM PMSF supplemented with cOmplete protein inhibitor cocktail (Roche). Cells were lysed by sonication and insoluble components removed by centrifugation at 40 K for 1 h at 4 °C. Soluble lysates were cleared through 0.45 μm filters and loaded onto His-Trap affinity columns (Cytiva), washed with step gradients up to 30 mM imidazole and eluted with a gradient up to 500 mM imidazole. Peak-fractions were digested over night with TEV protease (molar ratio ~ 1: 20) at 4 °C. Proteins were diluted to 50 mM NaCl and loaded onto a Source 15Q column, washed with 20 mM Tris pH8, 50 mM NaCl, 5% Glycerol, 1mM TCEP and eluted with a gradient up to 1 M NaCl. Peak fractions were mixed with 1 ml of Ni-NTA beads to remove TEV and uncleaved protein, adding 10 mM imidazole to prevent non-specific binding. The flow-through was concentrated, loaded onto a Superdex200 16/60 column and eluted in 20 mM Tris pH8, 200 mM NaCl, 5% Glycerol, 2mM TCEP. Peak fractions were concentrated, aliquots flash frozen in LN2 and stored at -80 °C.
(§1) Binding curves were determined in a total of 20 µl in black 384 well plates, by titrating protein concentrations (typically up to 50 µM) at a fixed concentration of 25 nM FITC labelled LD peptides (Apeptide Co. Ltd) in 20 mM Tris pH7.5, 150 mM NaCl, 1mM TCEP. Anisotropy measurements were preformed at 22 °C on a Spark® Multimode microplate reader (Tecan) with polarizers, at an excitation wavelength of 485 nm and an emission wavelength of 535 nm (20 nm bandwidth). KD values were extracted by fitting a one-site binding model using the GraphPad Prism software, using the equation: Y = Bmax*X/(KD + X), where Y is the measured anisotropy, X the protein concentration and Bmax the maximal anisotropy value at binding saturation.

[2] = system: FAT-H14-23 (I936A, K955A, R962A, I998A, H1025A, K1032A); test: Fluorescence anisotropy binding to FAT-H14-23 mutant; set-up: species or system human; details: both sites mutated
Source text: Expression plasmids for FAT (hFAK904-1052 WT and mutants H14, H23 and H14-23), Vin-FL (hVinculin1-1066) and Vin-T (hVinculin891-1066) were ordered from GenScript in the pET28(+) vector, adding a TEV cleavable N-terminal 6xHis tag to the expressed proteins. Mutant FAT-H14 contains the mutations I936A, H1025A, K1032A; FAT-H23 contains the mutations K955A, R962A, I998A and FAT-14-23 contains the combined mutations I936A, K955A, R962A, I998A, H1025A, K1032A. All plasmids were introduced into E.coli strain BL21(DE3) for expression. Cells were grown in LB media, induced with 1 mM IPTG at an OD (600 nm) of 0.6 and grown over night at 20 °C. […]
as §1

FAT-WT = test: svAUC peak integration, FAT-WT+LD2/4; format: binding, human
Procedure: (§2) For svAUC experiments, FAT and Vin-T proteins at 30 µM were incubated with 10 µM LD2/4 peptide in 20 mM Tris pH 7.5, 200 mM NaCl, 5% Glycerol and 1 mM TCEP. svAUC was performed at 20 °C at 48,000 rpm (Vin-T + LD1 + LD2, Fig. S2) or 58,000 rpm (FAT + LD2/4 + Vin-T; Fig. 3) in a XL-I analytical ultracentrifuge (Beckman-Coulter Inc.) equipped with both UV-VIS absorbance and Raleigh interference detection systems, using an An-50Ti rotor, and Epon-charcoal standard double-sector centerpieces (optical pathlength 12 mm or 4 mm for measurements at 100 µM shown in Fig. S2). Sedimentation profiles were recorded at 280 nm. Differential sedimentation coefficient distributions were calculated by least-squares boundary modelling of sedimentation velocity data using the continuous distribution c(s) Lamm equation model as implemented by SEDFIT [46]. These s values were corrected to standard conditions (water, 20 °C, and infinite dilution) using the program SEDNTERP [32] to get the corresponding standard s values (s20,w).

FAT-H14 = test: svAUC peak integration, FAT-H14+LD2/4; format: binding, human; details: 30 µM FAT-H14 + 10 µM LD2/4
Procedure: as §2

FAT-H23 = test: svAUC peak integration, FAT-H23+LD2/4; format: binding, human; details: 30 µM FAT-H23 + 10 µM LD2/4
Procedure: as §2

Vin-T = test: svAUC peak integration, Vin-T+LD2/4; format: binding, human; details: 30 µM Vin-T + 10 µM LD2/4
Procedure: as §2

FAT-WT and Vin-T = test: svAUC peak integration, FAT-WT+LD2/4+Vin-T; format: binding, human
Procedure: as §2

FAT-H14 and Vin-T = test: svAUC peak integration, FAT-H14+LD2/4+Vin-T; format: binding, human; details: 30 µM FAT-H14 + 10 µM LD2/4 + 30 µM Vin-T
Procedure: as §2

FAT-H23 and Vin-T = test: svAUC peak integration, FAT-H23+LD2/4+Vin-T; format: binding, human; details: 30 µM FAT-H23 + 10 µM LD2/4 + 30 µM Vin-T
Procedure: as §2

[3] = system: GST-Vin-T and His-FAT-H14; test: GST-pulldown of His-FAT with GST-Vin-T and LD2/4; format: binding, human; details: 30 µM GST-Vin-T, 10 µM LD2/4, 30 µM His-FAT, western blot anti-His
Procedure: 30 µM GST-Vin-T, 10 µM LD2/4 and 30 µM His-FAT proteins were incubated with glutathione sepharose beads for 1 h, centrifuged for 1 min at […] and washed 3x with 20 mM Tris pH 7.5, 150 mM NaCl, 0.1% Nonidet P40. Proteins co-sedimented with beads were resuspended in SDS Laemmli buffer, heated to 96 °C for 5 min and subjected to SDS-PAGE and western blotting. His-FAT proteins (WT or mutants) were detected using a primary mouse anti-His antibody (Proteintech) and a secondary HRP conjugated goat anti-mouse antibody (Merck).

[4] = 30 µM FAT-WT + 10 µM LD2/4, 20 °C, 280 nm
[5] = 30 µM FAT-WT + 10 µM LD2/4 + 30 µM Vin-T

Question: Which “increase of affinity for FAT by presence of both LD motifs” value [1] does the source give for “SNLSELDRLLLELNAVQHNGSGSGGSGGSGGSGGSGGSGGSGGSGGSATRELDELMASLSD [LD2/4]” here?
Answer: approximately 15 fold

Question: What about the “binding to FAT-H14-23, in words” value [2] of the same sequence?
Answer: no significant binding

Question: And the “c(total)” value (FAT-WT; 30 µM FAT-WT + 10 µM LD2/4)?
Answer: 0.58

Question: And the “c(Peak 1) [~ 1 s(S)]” value (FAT-WT; [4])?
Answer: 0.06

Question: What about the “c(Peak 2) [1-2 s(S)]” value (FAT-WT; [4]) of the same sequence?
Answer: 0.37

Question: What about the “c(Peak 3) [ >2 s(S)]” value (FAT-WT; 30 µM FAT-WT + 10 µM LD2/4, ~2.4 S peak, absence of Vin-T) of the same sequence?
Answer: 0.15

Question: What about the “c(Peak 1) [~ 1 s(S)]” value (FAT-H14) of the same sequence?
Answer: 0.11

Question: What about the “c(Peak 2) [1-2 s(S)]” value (FAT-H14) of the same sequence?
Answer: 0.45

Question: And the “c(Peak 3) [ >2 s(S)]” value (FAT-H14)?
Answer: 0.05

Question: And the “c(total)” value (FAT-H14)?
Answer: 0.61

Question: What about the “c(Peak 1) [~ 1 s(S)]” value (FAT-H23) of the same sequence?
Answer: 0.11

Question: What about the “c(Peak 2) [1-2 s(S)]” value (FAT-H23) of the same sequence?
Answer: 0.45

Question: And the “c(Peak 3) [ >2 s(S)]” value (FAT-H23)?
Answer: 0.03

Question: And the “c(total)” value (FAT-H23)?
Answer: 0.59

Question: What about the “c(Peak 1) [~ 1 s(S)]” value (Vin-T) of the same sequence?
Answer: 0.18

Question: And the “c(Peak 2) [1-2 s(S)]” value (Vin-T)?
Answer: 0.59

Question: What about the “c(total)” value (Vin-T) of the same sequence?
Answer: 0.77

Question: What about the “c(Peak 2) [1-2 s(S)]” value (FAT-WT and Vin-T; [5]) of the same sequence?
Answer: 0.68

Question: And the “c(total)” value (FAT-WT and Vin-T; [5])?
Answer: 1.08

Question: What about the “c(Peak 3) [ >2 s(S)]” value (FAT-WT and Vin-T; 30 µM FAT-WT + 10 µM LD2/4 + 30 µM Vin-T, ~2.4 S peak) of the same sequence?
Answer: 0.40

Question: And the “amount (c) of tripartite FAT:LD2/4:Vin-T complex” value (FAT-WT and Vin-T; difference of 2.4 S peak in presence and absence of Vin-T, FAT-WT)?
Answer: ≈ 0.25

Question: What about the “c(Peak 2) [1-2 s(S)]” value (FAT-H14 and Vin-T) of the same sequence?
Answer: 0.57

Question: What about the “c(total)” value (FAT-H14 and Vin-T) of the same sequence?
Answer: 1.09

Question: And the “c(Peak 3) [ >2 s(S)]” value (FAT-H14 and Vin-T; 2.4 S peak)?
Answer: 0.52

Question: What about the “c(Peak 1) [~ 1 s(S)]” value (FAT-H23 and Vin-T) of the same sequence?
Answer: 0.08

Question: What about the “c(Peak 2) [1-2 s(S)]” value (FAT-H23 and Vin-T) of the same sequence?
Answer: 0.80

Question: And the “c(total)” value (FAT-H23 and Vin-T)?
Answer: 1.18

Question: What about the “c(Peak 3) [ >2 s(S)]” value (FAT-H23 and Vin-T; ~2.3 S peak) of the same sequence?
Answer: 0.30 and ≈ 0.30

Question: What about the “His-FAT-H14 pulled down with GST-Vin-T” value [3] of the same sequence?
Answer: only pulled down in the presence of the LD2/4 peptide
